Assay type in all cases: functional
The target of assay [1] is T1, DNA topoisomerase 1 (Homo sapiens) (UniProt P11387).
T1 sequence (whole entry): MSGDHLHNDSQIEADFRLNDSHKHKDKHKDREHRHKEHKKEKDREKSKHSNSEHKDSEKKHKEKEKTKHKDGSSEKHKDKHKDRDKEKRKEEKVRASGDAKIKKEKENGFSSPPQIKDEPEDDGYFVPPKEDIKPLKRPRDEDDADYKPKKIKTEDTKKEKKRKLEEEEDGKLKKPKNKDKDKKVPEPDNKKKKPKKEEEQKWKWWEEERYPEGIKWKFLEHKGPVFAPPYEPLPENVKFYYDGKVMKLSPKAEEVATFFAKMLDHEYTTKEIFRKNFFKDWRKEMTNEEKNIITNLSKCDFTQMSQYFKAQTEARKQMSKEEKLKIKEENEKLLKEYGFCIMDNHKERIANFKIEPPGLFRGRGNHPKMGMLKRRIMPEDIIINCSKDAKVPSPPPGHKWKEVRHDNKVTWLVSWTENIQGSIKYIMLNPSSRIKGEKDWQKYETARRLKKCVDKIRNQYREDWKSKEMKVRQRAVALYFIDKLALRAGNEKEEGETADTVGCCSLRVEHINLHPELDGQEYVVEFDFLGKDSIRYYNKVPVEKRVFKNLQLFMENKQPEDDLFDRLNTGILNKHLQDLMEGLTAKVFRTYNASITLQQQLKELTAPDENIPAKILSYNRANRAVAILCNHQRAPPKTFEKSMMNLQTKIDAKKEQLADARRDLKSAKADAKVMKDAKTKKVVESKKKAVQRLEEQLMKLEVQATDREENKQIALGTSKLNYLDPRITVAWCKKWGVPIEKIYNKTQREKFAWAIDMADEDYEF
Put plainly: The compound was tested for top1-induced DNA cleavage activity; ++ indicates more potent than CPT.

In assay [2] the target is T1, DNA topoisomerase 1 (Homo sapiens). Description: The compound was tested for top1-induced DNA cleavage activity; - indicates inactive.
Assay [3] shares this target. Description: The compound was tested for top1-induced DNA cleavage activity; + indicates comparable to CPT.

Calls of active or inactive are those of the source. No cut-off for these calls is given here.

Regarding `CC[C@@]1(O)C(=O)OCc2c1cc1n(c2=O)Cc2cc3cc(N)c(O)cc3nc2-1`, the inhibition entry in assay [1] was “more potent than CPT”.

On to `CC[C@]1(O)C(=O)OCc2c1cc1n(c2=O)Cc2cc3ccccc3nc2-1`, for which the inhibition result in assay [2] was “inactive”.

As for `CC[C@@]1(O)C(=O)OCc2c1ccc1c2Cc2cc3ccccc3nc2-1`, the inhibition result in assay [2] is “inactive”.

As to `CC[C@H]1C(=O)OCc2c1cc1n(c2=O)Cc2cc3ccccc3nc2-1`, in assay [2], the inhibition entry is “inactive”.

With `CC[C@@]1(O)C(=O)OCc2c1cc1n(c2=O)Cc2cc3cc(OC)c(OC)cc3nc2-1` (stereo in doubt; form 2), the inhibition result in assay [2] is “inactive”.

As to `CC[C@@]1(O)C(=O)OCc2c1cc1n(c2=O)Cc2cc3cc(OC)c(OC)cc3nc2-1` (stereo in doubt; form 1), the inhibition result in assay [2] is “inactive”.

Consider `CC[C@@]1(O)C(=O)OCc2c1cc1n(c2=O)Cc2c-1nc1cc3c(cc1c2CN1CCN(C)CC1)OCO3`, for which the inhibition entry in assay [1] is listed as “more potent than CPT”.

On to `CC[C@@]1(O)C(=O)OCc2c1cc1n(c2=O)Cc2cc3cc(OC)c(OC)cc3nc2-1` (stereo in doubt; form 3), for which, in assay [2], the inhibition result was “inactive”.

Turning to `CC[C@@]1(O)C(=O)OCc2c1cc1n(c2=O)Cc2c-1nc1cnc(CN)cc1c2C`, the inhibition entry in assay [3] is on record as “comparable to CPT”.

For `CC[C@@]1(O)C(=O)OCc2c1cc1n(c2=O)Cc2c-1nc1cc3c(cc1c2CN1CCN(C)CC1)OCCO3`, the inhibition result in assay [1] was “more potent than CPT”.

Turning to `CC[C@@]1(O)C(=O)OCc2cc3c(cc21)-c1nc2ccccc2cc1C3`, the inhibition entry in assay [2] was “inactive”.
